{"source": "PubChem BioAssay (NCI)", "note": "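Exposure lasted 48 hours, with cells grown in 96-well plates and compounds tested at five concentrations. Definition used: TGI = concentration required for complete inhibition of growth.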"}
{"tested_on": "A498 renal", "experiment": "DTP human tumour cell line panel, 48 h", "units": {"TGI": "µM"}}
{"smiles": "C(/C=C/Nc1ccc(Oc2ccccc2)cc1)=Nc1ccc(Oc2ccccc2)cc1", "TGI": 29.7}
{"smiles": "O=C(/C=C/c1ccc2ccccc2c1)NCc1ccc(C(=O)NCCc2ccccc2)cc1", "TGI": "> 100"}
{"smiles": "Nc1nc(-[n+]2ccc(-c3ccncc3)cc2)nc(Cl)c1Cl", "TGI": "> 100"}
{"smiles": "CC(C)OC(=O)/C=C/C(=O)O/C=C/[N+](=O)[O-]", "TGI": 40.4}
{"smiles": "C[C@@H](c1ccccc1)n1c(N)c(C#N)c2ccc([N+](=O)[O-])cc2c1=O", "TGI": 24.4}
{"smiles": "CC1(C)OC(=O)N(c2ccccc2)C12C=Cc1cc([N+](=O)[O-])ccc1O2", "note": "(configuration not stated)", "TGI": "> 100"}
{"smiles": "COC1=C(OC)C(=O)C(Cc2c(C)nc3sccn23)=C(C)C1=O", "TGI": 38.3}
{"smiles": "COC(=O)c1cc2c(cc1Cl)Sc1nnc(Nc3ccc(C)cc3)n1S2(=O)=O", "TGI": 28.9}
{"smiles": "N#C[C@@H](c1ccccn1)c1ncccc1[N+](=O)[O-]", "TGI": "> 100"}
{"smiles": "N#Cc1[nH]c(=O)n(-c2ccccc2)c1N", "TGI": "> 10"}
{"smiles": "COC(=O)C1=CS/C(=C2\\S[C@@H]3[C@H](S2)[C@H]2C=C[C@@H]3C2)S1", "TGI": "> 100"}
{"smiles": "CC(=O)Oc1ccc2cc(-c3ccccc3OC(C)=O)c(=O)oc2c1", "TGI": "> 100"}
{"smiles": "O=[N+]([O-])c1ccc(S(=O)(=O)n2c3ccc(Br)cc3c3nc4ccccc4nc32)cc1", "TGI": "> 100"}
{"smiles": "CC(=O)[C@@H](C)C(=O)N1C(=O)OC[C@@]12[C@@H]1CC[C@@H](C1)C2(C)C", "TGI": "> 100"}
{"smiles": "COC(=O)Nc1nc2ccc(S(=O)(=O)SC)cc2[nH]1", "TGI": 99.7}
{"smiles": "CCN(CC)CCSc1c2cc(OC)ccc2nc2ccc(OC)cc12", "TGI": 51.5}
{"smiles": "CO/C=C(/C(=O)OC)c1ccccc1COc1cccc(C(F)(F)F)c1", "TGI": 68.6}
{"smiles": "CCOC(=O)c1ccc(NCc2ccc3oc(=O)c(-c4ccccc4)nc3c2)cc1", "TGI": "> 100"}
{"smiles": "C1=Cc2cc3c(c4nccc(c24)N1)OCO3", "TGI": "> 85.1"}
{"smiles": "CC(C)=CCC(O)[C@](C)(O)[C@H]1[C@H](O)C[C@@]2(C)[C@@H]3CCc4cc(O)c(OC5OC(CO)C(O)C(O)C5O)cc4C3(C)C(=O)C[C@]12C", "note": "(some centres not stated)", "TGI": "> 100"}
{"smiles": "C[N+]1(C)CCc2cc(O)c(O)cc2C1Cc1ccc(O)c(O)c1", "note": "(configuration not stated)", "TGI": "> 100"}
{"smiles": "O=C1NC2O[C@H](CNC(=O)c3cc(Br)c[nH]3)CC2(O)N1", "note": "(mixture of isomers)", "TGI": "> 100"}
{"tested_on": "SK-MEL-2 melanoma", "experiment": "DTP human tumour cell line panel, 48 h", "units": {"TGI": "µM"}}
{"smiles": "O=C(/C=C/c1ccc2ccccc2c1)NCc1ccc(C(=O)NCCc2ccccc2)cc1", "TGI": "> 100"}
{"smiles": "Nc1nc(-[n+]2ccc(-c3ccncc3)cc2)nc(Cl)c1Cl", "TGI": "> 100"}
{"smiles": "CC(C)OC(=O)/C=C/C(=O)O/C=C/[N+](=O)[O-]", "TGI": 46.4}
{"smiles": "C[C@@H](c1ccccc1)n1c(N)c(C#N)c2ccc([N+](=O)[O-])cc2c1=O", "TGI": "> 100"}
{"smiles": "CC1(C)OC(=O)N(c2ccccc2)C12C=Cc1cc([N+](=O)[O-])ccc1O2", "note": "(configuration not stated)", "TGI": "> 100"}
{"smiles": "COC1=C(OC)C(=O)C(Cc2c(C)nc3sccn23)=C(C)C1=O", "TGI": 41.5}
{"smiles": "CC1(C)/C(=C/N=O)N(O)C(C)(C)N1O", "TGI": "> 100"}
{"smiles": "COC(=O)c1cc2c(cc1Cl)Sc1nnc(Nc3ccc(C)cc3)n1S2(=O)=O", "TGI": 9.16}
{"smiles": "N#Cc1c(-c2ccccc2)[nH]c2ccc(Cl)cc2c1=O", "TGI": 94.3}
{"smiles": "N#C[C@@H](c1ccccn1)c1ncccc1[N+](=O)[O-]", "TGI": "> 100"}
{"smiles": "N#Cc1[nH]c(=O)n(-c2ccccc2)c1N", "TGI": "> 10"}
{"smiles": "COC(=O)C1=CS/C(=C2\\S[C@@H]3[C@H](S2)[C@H]2C=C[C@@H]3C2)S1", "TGI": "> 100"}
{"smiles": "CC(=O)Oc1ccc2cc(-c3ccccc3OC(C)=O)c(=O)oc2c1", "TGI": "> 100"}
{"smiles": "O=[N+]([O-])c1ccc(S(=O)(=O)n2c3ccc(Br)cc3c3nc4ccccc4nc32)cc1", "TGI": "> 100"}
{"smiles": "CC(=O)[C@@H](C)C(=O)N1C(=O)OC[C@@]12[C@@H]1CC[C@@H](C1)C2(C)C", "TGI": "> 100"}
{"smiles": "COc1cc(-c2nc3ccccn3c2/N=C/c2cc(Br)cc(Br)c2O)ccc1O", "TGI": 42.2}
{"smiles": "COC(=O)Nc1nc2ccc(S(=O)(=O)SC)cc2[nH]1", "TGI": 26.9}
{"smiles": "CCN(CC)CCSc1c2cc(OC)ccc2nc2ccc(OC)cc12", "TGI": 44.6}
{"smiles": "CO/C=C(/C(=O)OC)c1ccccc1COc1cccc(C(F)(F)F)c1", "TGI": 34.2}
{"smiles": "CCOC(=O)c1ccc(NCc2ccc3oc(=O)c(-c4ccccc4)nc3c2)cc1", "TGI": "> 100"}
{"smiles": "C1=Cc2cc3c(c4nccc(c24)N1)OCO3", "TGI": 36.6}
{"smiles": "CC(C)=CCC(O)[C@](C)(O)[C@H]1[C@H](O)C[C@@]2(C)[C@@H]3CCc4cc(O)c(OC5OC(CO)C(O)C(O)C5O)cc4C3(C)C(=O)C[C@]12C", "note": "(some centres not stated)", "TGI": "> 100"}
{"smiles": "C[N+]1(C)CCc2cc(O)c(O)cc2C1Cc1ccc(O)c(O)c1", "note": "(configuration not stated)", "TGI": "> 100"}
{"smiles": "O=C1NC2O[C@H](CNC(=O)c3cc(Br)c[nH]3)CC2(O)N1", "note": "(mixture of isomers)", "TGI": "> 100"}
{"tested_on": "MOLT-4 leukemia", "experiment": "DTP human tumour cell line panel, 48 h", "units": {"TGI": "µM"}}
{"smiles": "O=C(/C=C/c1ccc2ccccc2c1)NCc1ccc(C(=O)NCCc2ccccc2)cc1", "TGI": "> 100"}
{"smiles": "Nc1nc(-[n+]2ccc(-c3ccncc3)cc2)nc(Cl)c1Cl", "TGI": 37.2}
{"smiles": "CC(C)OC(=O)/C=C/C(=O)O/C=C/[N+](=O)[O-]", "TGI": 36.5}
{"smiles": "CC1(C)OC(=O)N(c2ccccc2)C12C=Cc1cc([N+](=O)[O-])ccc1O2", "note": "(configuration not stated)", "TGI": 84.9}
{"smiles": "CCOc1ncn(-c2ccc(NC(=S)NC3OC(CO)C(O)C(O)C3O)cc2)n1", "note": "(configuration not stated)", "TGI": "> 100"}
{"smiles": "COC(=O)c1cc2c(cc1Cl)Sc1nnc(Nc3ccc(C)cc3)n1S2(=O)=O", "TGI": 7.07}
{"smiles": "N#Cc1c(-c2ccccc2)[nH]c2ccc(Cl)cc2c1=O", "TGI": "> 100"}
{"smiles": "N#C[C@@H](c1ccccn1)c1ncccc1[N+](=O)[O-]", "TGI": "> 100"}
{"smiles": "N#Cc1[nH]c(=O)n(-c2ccccc2)c1N", "TGI": "> 10"}
{"smiles": "COC(=O)C1=CS/C(=C2\\S[C@@H]3[C@H](S2)[C@H]2C=C[C@@H]3C2)S1", "TGI": "> 100"}
{"smiles": "CC(=O)Oc1ccc2cc(-c3ccccc3OC(C)=O)c(=O)oc2c1", "TGI": "> 100"}
